The subject of test [1] is db/db mice. Briefly: Example 5: ten week-old db/db mice, Compound BI +/- P32/98 for 4 weeks. As to conditions: Compound BI 100 mg/kg p.o., P32/98 10 mg/kg twice a day by gavage; for Circulating glucose levels: FIG. 11; for Pancreatic insulin: FIG. 12. The format is in vivo. How it is done: Ten week-old db/db mice were given vehicle or Compound BI (100 mg/kg, p.o.)+/−P32/98 (10 mg/kg, twice a day by gavage) as indicated for 4 weeks. Assays for circulating glucose and pancreatic insulin were conducted as in Example 3.

The test system of test [2] is late-stage db/db mice. Briefly: Example 1: late-stage db/db mice treated daily for 4 weeks; serum glucose, serum insulin and islet insulin. The format is in vivo. How it is done: Serum glucose and insulin and pancreatic insulin were measured.
Test [3] relates to db/db mice. As to conditions: previous studies; cited from earlier work.
The test system of test [4] is db/db mice. Kind of test: Example 2: db/db mice with glucose above 400 mg/dL treated for 4 weeks; circulating glucose and pancreatic insulin (ECL assay). As to conditions: Compound BI 100 mg/kg by oral gavage, exendin 3 μg/kg or 10 μg/kg i.p. The format is in vivo.
Protocol: Peripheral blood glucose levels of db/db mice was monitored. When the glucose levels exceeded 400 mg/dL the mice were divided into groups of 6 mice each. The mice in each group were given either vehicle or Compound BI (100 mg/kg by oral gavage)+/−i.p. injections of exendin-amide (Bachem, King of Prussia, PA) as indicated below for 4 weeks. • 1) Vehicle • 2) Vehicle+Exendin (3 μg/kg) • 3) Vehicle+Exendin (10 μg/kg) • 4) Compound BI • 5) Compound BI+Exendin (3 μg/kg) • 6) Compound BI+Exendin (10 μg/kg)
After four weeks of treatment, the mice were bled via the retroorbital sinus and sera sent to Anilytics, Inc. (Gaithersburg, Md.) for analysis of circulating glucose levels. The pancreata were collected, weighed, flash frozen and then processed for pancreatic insulin assays. Briefly, the pancreas was placed into pancreatic extraction solution (75% ethanol and 25% 0.15N HCl) and the volume adjusted to 1 mL per 100 mg of pancreas. The pancreas was then sonicated and stored at −20° C. overnight. The next day, the samples were centrifuged at 2500 rpm for 5 minutes at 4° C. to pellet unsolubilized material. 1.5 mL of supernatant was placed in an Eppendorf tube and spun in a microcentrifuge at 1300 rpm for 20 minutes at 4° C. to pellet any remaining unsolubilized material. […] The samples were then read on an M384 instrument (BioVeris Corp., Gaithersburg, Md.). […]
For test [5], the system named is streptozotocin-induced diabetes. To be noted: Pospisilik et al., Diabetes 52:741-750, 2003; cited from earlier work.

Consider `Cc1cccc(C)c1COc1cccc(C(=O)CCC(=O)O)c1` [Compound BI, 4-(3-(2,6-Dimethylbenzyloxy)phenyl)-4-oxobutyric acid], for which the figures for the Circulating glucose levels entry in test [1] and in test [4] (FIG. 4) were “reduced circulating glucose levels” and “significant reduction in circulating glucose levels”, respectively. Moreover, the Pancreatic insulin entry in test [1] was “increased pancreatic insulin levels”; in test [4] (FIG. 5), “corresponding increase in pancreatic insulin”. In test [2] (daily for 4 weeks, Compound BI 100 mg/kg/day p.o., Exendin-4 amide 10 microgram/day i.p., FIG. 1), the Serum glucose result is reported as “reduced serum glucose substantially”. The Islet insulin result in test [2] (daily for 4 weeks, Compound BI 100 mg/kg/day p.o., Exendin-4 amide 10 microgram/day i.p., FIG. 2) is listed as “had more insulin than either of those two groups”. In addition, in test [2] (daily for 4 weeks, Compound BI 100 mg/kg/day p.o., Exendin-4 amide 10 microgram/day i.p., FIG. 3), the Serum insulin entry is “without a significant increase in serum insulin”. Besides, in test [2] (inferred from glucose lowering without a significant increase in serum insulin, 4 weeks), the Insulin resistance result is “reduced insulin resistance”. In test [3], the Islet insulin content result was “preserves islet insulin content”.

Turning to `CC[C@H](C)[C@H](N)C(=O)N1CCSC1` [P32/98, reference compound], in test [1], the Circulating glucose levels result is given as “slight reduction in circulating glucose levels” and the Pancreatic insulin result was “no increase in pancreatic insulin”. Besides, the “Activity in streptozotocin-induced diabetes” value in test [5] was “active”.
